The record followed here is ChEMBL document CHEMBL3352134, “In silico and pharmacological screenings identify novel serine racemase inhibitors” (Bioorg Med Chem Lett, 2014).

The structures appear in SMILES notation.

The target in assay [1] is T1, Serine racemase (Homo sapiens, UniProt Q9GZT4).
T1 sequence (Q9GZT4 whole entry): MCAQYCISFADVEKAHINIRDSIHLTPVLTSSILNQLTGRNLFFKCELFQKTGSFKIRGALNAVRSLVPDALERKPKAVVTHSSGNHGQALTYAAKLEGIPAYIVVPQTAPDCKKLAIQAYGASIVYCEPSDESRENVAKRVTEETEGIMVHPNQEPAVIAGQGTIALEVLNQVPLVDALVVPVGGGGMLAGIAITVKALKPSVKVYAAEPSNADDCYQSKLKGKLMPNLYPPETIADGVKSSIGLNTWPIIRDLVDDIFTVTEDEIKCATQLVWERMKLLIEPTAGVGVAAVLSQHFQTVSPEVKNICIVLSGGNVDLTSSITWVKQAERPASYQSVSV
The experiment in a line: Binding affinity to serine recemase (unknown origin).

Assay [2] addresses Serine racemase (Homo sapiens, UniProt Q9GZT4). Description: Inhibition of full length human recombinant serine recemase C2DC6D mutant expressed in Escherichia coli BL21 (DE3) assessed as D-serine production after 10 mins by Saccharomyces cerevisiae Dsd1SC based D-serine detection assay.
Assay [3] has as its target T2, Serine racemase (Homo sapiens) (UniProt Q9GZT4).
T2 sequence (whole entry): T1 sequence (Q9GZT4 whole entry)
The experiment in a line: Inhibition of full length human recombinant serine recemase C2DC6D mutant expressed in Escherichia coli BL21 (DE3) assessed as D-serine production at 1 mM after 10 mins by Saccharomyces cerevisiae Dsd1SC based D-serine detection assay.

As to `O=C(O)CC(=O)O` [MALONIC ACID], the affinity on Serine racemase [1] corresponds to a Ki of 33 µM. In addition, the IC50 (as a rule, the point on the concentration scale where inhibition reaches its midpoint) at Serine racemase [2] is 1310 µM. In assay [3], the inhibition (commonly how much of the control response was suppressed) was determined as 59%.
Consider `NCC(=O)O` [GLYCINE], for which the affinity on Serine racemase [1] corresponds to a Ki of 366 µM.
For `N[C@H](C(=O)O)[C@@H](O)C(=O)O`, the affinity on Serine racemase [1] corresponds to a Ki of 11 µM.
